{"source": "patent US12178840B2", "about": "“Method and compositions comprising a CT20 peptide” (UNIVERSITY OF CENTRAL FLORIDA RESEARCH FOUNDATION, INC., priority 2014, dated 2024)", "format_in_all_cases": "cell-based, human", "key": {"MDA-MB-231 cells [1]": {"test_system": "MDA-MB-231 cells", "experiment": "Timeline of biological effects of CT20 in HBPE-NPs in breast cancer cells", "conditions": "CT20 (˜3.4 nM) in HBPE-NPs", "method": "CT20 peptide impaired mitochondrial movement (mitotracker green) (A) leading to clustering (JC-1 probe) (B) and reduced F-actin (green) polymerization (nucleus, DAPI, blue (C). Referring to FIG. 3D, the viability of cells was determined by measuring membrane permeability (Sytox) and membrane asymmetry (violet ratiometric dye). Gates are: N, necrotic; V, viable; A, apoptotic. Percentages are V (black) and N+A (red). Referring to FIG. 3E, by 6 hours, cells detach from substrate (fibronectin). Referring to FIG. 3F, membrane levels of β1 integrin decrease. Referring to FIG. 3G-3I, post-cell detachment events include caspase activation, autophagy, and increased ROS production. Referring to FIG. 3J, apoptosis/anoikis was detected between 24-48 hours as described for 3D.\n(§1) This triggered hyperpolarization of the mitochondrial membrane and fusion-like aggregation (FIG. 3B) that impaired mitochondrial redistribution, ATP production, and F-actin polymerization (FIG. 3C). Cells remained viable during these “initiating events” (FIG. 3D). However, at 6 hours post-CT20 treatment, cells began detaching from the substrate (fibronectin) (FIG. 3E). This was preceded by decreased expression of integrins (β1 integrin is shown; FIG. 3F). By 24 hours post-CT20 treatment, “effector events” caused by peptide-induced detachment were detected, including the activation of caspases (FIG. 3G), the induction of autophagy (FIG. 3H), and increased ROS production (FIG. 3I). Cell death (anoikis), indicated by membrane asymmetry, was detected in cancer cells by 48 hours (FIG. 3J)."}, "MCF-10A cells": {"test_system": "MCF-10A cells", "experiment": "Biological effects of CT20 in HBPE-NPs in normal control epithelial cells", "conditions": "CT20 (˜3.4 nM) in HBPE-NPs", "method": "as §1"}, "[2]": {"test_system": "TNBC cell lines and MCF-10A", "experiment": "Metabolic stress tests (Seahorse, oxygen consumption and extracellular acidification)", "conditions": "75 ug/mL for 24 hours before the assay", "method": "Measurement of oxygen consumption and extracellular acidification: 24-well culture plates for use with the Seahorse XFe24 analyzer were coated with Cell-Tak (BD Bioscience) at 3.5 ug/cm2. Cells were then seeded at 60,000 cells/well and allowed to adhere overnight. Measurements of oxygen consumption rate and extracellular acidification rate were obtained using a Seahorse XFe 24 analyzer (Seahorse Bioscience). To obtain mitochondrial metabolic profiles, injections of oligomycin (1 uM), FCCP (0.3 uM), rotenone (0.1 uM), and antimycin A (2 uM) were performed. The mitochondrial coupling efficiency was calculated as: [1−(minimum oligomycin response/final basal measurement)]×100. To obtain glycolytic metabolic profiles, injections of glucose (10 mM), oligomycin (1 uM), and 2-deoxy-D-glucose (100 mM) were performed. Glycolytic reserve capacity was calculated as: maximum oligomycin response−maximum glucose response. […] Metabolic capacity was defined as the maximum recorded measurement in both mitochondrial and glycolytic contexts. CT20p-treated results were calculated as a percentage of untreated results.\nThe effect of CT20p on cellular metabolism was also examined by pre-treating the cells with CT20p prior to running metabolic stress tests. Glycolytic capacity (FIG. 6C) and respiration capacity (FIG. 6F) were calculated for treated cells with respect to untreated cells."}, "BT-549 cells": {"test_system": "BT-549 cells", "experiment": "Cell viability by flow cytometry (Sytox AADvanced / F2N12S), time course", "conditions": "75 ug/mL", "method": "(§2) Measurement of cell viability: Cells at 60% confluency were treated with CT20p at a dose of 75 ug/mL for varying lengths of time. Following treatment, cells were collected and stained with Sytox AADvanced and F2N12S Violet Ratiometric Apoptosis kit (Invitrogen). Data was acquired by flow cytometry on a FACS Canto (BD Biosciences), and analyzed with FCSExpress software (DeNovo).\n(§3) The cytotoxicity of CT20p to the cell lines was also assessed. To do this, cells were treated with the effective dose of CT20p in a time course-experiment, and membrane symmetry and permeability were examined by flow cytometry (FIG. 5B). […] BT-549 cells, on the other hand, were resistant to the effects of the peptide."}, "MDA-MB-231 cells [3]": {"test_system": "MDA-MB-231 cells", "experiment": "Cell viability by flow cytometry (Sytox AADvanced / F2N12S), time course", "conditions": "75 ug/mL", "method": "as §2, §3"}, "MDA-MB-436 cells": {"test_system": "MDA-MB-436 cells", "conditions": "75 ug/mL, time course", "method": "as §2, §3"}, "[4]": {"test_system": "cells isolated from paired normal tissue", "experiment": "Lethality in cells isolated from paired normal tissue", "conditions": "CT20 peptide in HBPE-NPs", "from_the_text": "40× magnification. CCTβ was detected in invasive breast cancer.\nThe lethality of CT20 was also examined in cells isolated from primary breast tumors and paired normal tissue. […] To this end, the levels of CCTβ were examined in a pilot tissue array of breast cancer tissue cores by immunohistochemistry (IHC) and detected CCTβ in invasive breast cancer (FIG. 14B)."}}, "note": "Residues, ends and D or L forms follow the SMILES beside them.", "data": [{"smiles": "CC[C@H](C)[C@H](NC(=O)[C@@H](NC(=O)[C@H](CC(C)C)NC(=O)[C@H](CO)NC(=O)[C@H](C)NC(=O)[C@@H](NC(=O)[C@H](CC(C)C)NC(=O)[C@@H](NC(=O)CNC(=O)[C@H](C)NC(=O)[C@@H](NC(=O)[C@H](Cc1ccccc1)NC(=O)[C@@H](NC(=O)[C@@H](NC(=O)[C@@H](NC(C)=O)C(C)C)[C@@H](C)O)[C@@H](C)CC)C(C)C)C(C)C)[C@@H](C)O)[C@@H](C)O)C(=O)N[C@@H](Cc1c[nH]c2ccccc12)C(=O)N[C@@H](CCCCN)C(=O)N[C@@H](CCCCN)C(=O)N[C@@H](CCSC)C(=O)NCC(N)=O", "note": "[CT20] (Ac-VTIFVAGVLTASLTIWKKMG-NH2)", "values": [{"measurement": "Movement of mitochondria compared to controls", "setting": "MDA-MB-231 cells [1]", "value": "decreased four-fold"}, {"measurement": "Time by which cell death (anoikis, membrane asymmetry) was detected", "setting": "MDA-MB-231 cells [1]", "value": "≤ 48", "unit": "h"}, {"measurement": "Time at which cells began detaching from the substrate (fibronectin)", "setting": "MDA-MB-231 cells [1]; post-CT20 treatment", "value": 6, "unit": "h"}, {"measurement": "Time by which effector events (caspase activation, autophagy, increased ROS) were detected", "setting": "MDA-MB-231 cells [1]; post-CT20 treatment", "value": "≤ 24", "unit": "h"}, {"measurement": "Cytoskeletal impairment and cell death in control epithelial cell line", "setting": "MCF-10A cells", "value": "not observed"}, {"measurement": "Cytoskeletal impairment and cell death in control epithelial cell line", "setting": "MCF-10A cells; listed as CT20 peptide", "value": "minimal cell death"}, {"measurement": "Metabolic responses (glycolytic capacity, respiration capacity) that could explain the cytotoxicity pattern", "setting": "[2]", "value": "None of the cell lines displayed metabolic responses"}, {"measurement": "Sensitivity to CT20p cytotoxicity", "setting": "BT-549 cells", "value": "resistant"}, {"measurement": "Sensitivity to CT20p cytotoxicity", "setting": "MDA-MB-231 cells [3]", "value": "highly susceptible"}, {"measurement": "Earliest time at which characteristics of cell death were displayed", "setting": "MDA-MB-436 cells", "value": 6, "unit": "h"}, {"measurement": "Lethality", "setting": "[4]", "value": "not the normal cells"}]}]}
